According to patent US12552771B2, “Carboxylic acid containing azetidinyl compounds for the treatment of neurodegenerative diseases” (Celgene Corporation, priority 2021, dated 2026):
Counter-ions that a name gives are not always drawn.

These molecules were tested against T1, S1P5 receptors (Homo sapiens, UniProt Q9H228) (assay: [35S]-GTPγS binding assay with CHO-S1P5 receptor membranes). Conditions: membranes of CHO cells expressing recombinant S1P5 receptors; measure of S1P5 agonism.
T1 construct: expressed in transfected cells; host or cells: CHO cells (membranes)
Assay type: biochemical
Procedure, shortened: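 Membranes from CHO cells expressing recombinant S1P5 were preincubated for 30 min at RT with compound, GDP and WGA SPA beads. The buffer was 20 mM HEPES, 10 mM MgCl2, 100 mM NaCl, 1 mM EDTA, 0.1% fatty-acid-free BSA and 30 μg/mL saponin, pH 7.4. [35S]GTPγS (200 pM final) was added for 40 min, and bound radioactivity read as agonism; S1P was the control.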

T1 sequence (Q9H228 whole entry): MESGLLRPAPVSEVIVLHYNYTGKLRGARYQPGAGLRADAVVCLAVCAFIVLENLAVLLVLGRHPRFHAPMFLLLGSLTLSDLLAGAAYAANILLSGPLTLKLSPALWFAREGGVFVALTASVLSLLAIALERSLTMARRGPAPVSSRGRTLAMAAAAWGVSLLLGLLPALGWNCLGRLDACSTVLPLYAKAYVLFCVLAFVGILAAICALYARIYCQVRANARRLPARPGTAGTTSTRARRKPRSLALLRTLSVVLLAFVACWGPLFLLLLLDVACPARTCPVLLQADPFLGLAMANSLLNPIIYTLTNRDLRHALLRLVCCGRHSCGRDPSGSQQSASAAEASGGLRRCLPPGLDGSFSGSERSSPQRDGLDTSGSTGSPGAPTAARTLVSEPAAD

EC50 | Structure (SMILES)
100 to 1000 nM | Cc1cc(C2CN(c3c(Cl)cccc3Cl)C2)c(C)nc1CN1CCC(C(=O)O)CC1 [Compound 82, 1-((5-(1-(2,6-dichlorophenyl)azetidin-3-yl)-3,6-dimethylpyridin-2-yl)-methyl)piperidine-4-carboxylic acid]
10 to 100 nM | Cc1cc(CN2CCC(C(=O)O)CC2)c(C)nc1C1CN(c2c(Cl)cccc2Cl)C1 [Compound 83, 1-((6-(1-(2,6-dichlorophenyl)azetidin-3-yl)-2,5-dimethyl-pyridin-3-yl)methyl)piperidine-4-carboxylic acid]
10 to 100 nM | Cc1cc(CN2CCC(C(=O)O)CC2)nc(C)c1C1CN(c2c(Cl)cccc2Cl)C1 [Compound 84, 1-((5-(1-(2,6-dichlorophenyl)azetidin-3-yl)-4,6-dimethyl-pyridin-2-yl)methyl)piperidine-4-carboxylic acid]
≤ 10 nM | Cc1cc(C(C)(C)N2CCC(C(=O)O)CC2)cc(C)c1C1CN(c2c(Cl)cccc2Cl)C1 [Compound 86, 1-(2-(4-(1-(2,6-dichlorophenyl)azetidin-3-yl)-3,5-dimethylphenyl)propan-2-yl)piperidine-4-carboxylic acid]
10 to 100 nM | CC(C)(c1ccc(C2CN(c3c(Cl)cccc3Cl)C2)nc1)N1CCC(C(=O)O)CC1 [Compound 87, 1-(2-(6-(1-(2,6-dichlorophenyl)azetidin-3-yl)pyridin-3-yl)propan-2-yl)-piperidine-4-carboxylic acid]
10 to 100 nM | CC1(C(=O)O)CCN(Cc2ccc(C3CN(c4c(Cl)cccc4Cl)C3)cc2)CC1 [Compound 89, 1-(4-(1-(2,6-dichlorophenyl)azetidin-3-yl)benzyl)-4-methylpiperidine-4-carboxylic acid, formic acid salt]
≤ 10 nM | Cc1cc(C2CN(c3c(Cl)cccc3Cl)C2)cc(C)c1CN1CCC(C)(C(=O)O)CC1 [Compound 90, 1-(4-(1-(2,6-dichlorophenyl)azetidin-3-yl)-2,6-dimethylbenzyl)-4-methyl-piperidine-4-carboxylic acid, formic acid salt]
